# According to publication PMC4565196 (Biochimica et biophysica acta, 2014):
# Experiments:
# [1] = tested on: A2AR single and double Cys-to-Ala variants; assay: Fluorescent-ligand binding to the A2AR variants; parameters: species or system human; details: HEK-293 cells, untagged A2AR constructs, 70 nM FITC-APEC, 1 h at 37 °C
# A2a–adenosine receptors = details: high affinity fluorescent agonist; cited from earlier work
compound,measurement,setting,value
"CCNC(=O)[C@H]1O[C@@H](n2cnc3c(N)nc(NCCc4ccc(CCC(=O)NCCNC(=S)Nc5ccc6c(c5)C(=O)OC6(c5ccc(O)cc5)c5ccc(O)cc5)cc4)nc32)[C@H](O)[C@@H]1O [FITC-APEC, 2-[2-[4-[2-[2-[1,3-Dihydro-1,1-bis (4-hydroxyphenyl)-3-oxo-5-isobenzofuranthioureidyl]ethylaminocarbonyl]ethyl]phenyl]ethylamino]-5N′-ethylcarboxamidoadenosine]",fluorescent ligand binding at the cell surface,[1],capable of binding
same,Kd,A2a–adenosine receptors,0.057 µM
